Like-named read-outs stand apart in the source and are kept apart here.
Experiments:
[1] = test system: Cucumber Angular Leaf Spot; assay: Microbicidal activity on cucumber seedlings, spray then inoculation (Embodiment 7); conditions: for Cucumber bacterial spot (%), controlling effect: testing concentration of 500 μg/g, cucumber seedling; for pest or weed control at 500 µg/g: Cucumis sativus, read-out: Cucumber bacterial spot (%), controlling effect
Procedure: Testing Materials: Strain: Cucumber Angular Leaf Spot
Testing method: a cucumber seedling at the stage of 2 seminal leaves was inoculated by spraying a suspension of Cucumber Angular Leaf Spot. Testing agents and control agents were sprayed uniformly on the seminal leaves at A.M. of a sunshine day respectively. After 2 hours, the leaves were inoculated with pathogenic microbes and cultured at humidity. After full occurrence of disease in control group, state of illness was examined according to grading standards, and the controlling effects were measured.

[2] = test system: Cucumber Angular Leaf Spot; assay: Microbicidal activity on cucumber seedlings, spray then inoculation (Embodiment 8); conditions: for Cucumber Angular Leaf Spot Average inhibition rate (%): testing concentration of 500 μg/g; for pest or weed control at 500 µg/g: Cucumis sativus, read-out: Cucumber Angular Leaf Spot Average inhibition rate (%)
Procedure: (§1) (Pseudomonassyringaepv. tomato (Okabe) Young, Dye & Wilkie), Cucumber Angular Leaf Spot, Rice Sheath Blight Disease (Rhizoctonia solani), Corynespora Leaf Spot of Cucumber (Corynespora cassiicola), Downy Mildew of Cucumber (Cucumber Downy Mildew).
(§2) Testing agents and control agents were sprayed uniformly at A.M. of a sunshine day on the cucumber seminal leaves. After 2 hours, the leaves were inoculated with pathogenic microbes and cultured at humidity. […] Strip inoculation is used for Rice Sheath Blight Disease and phytophthora blight of pepper, in which the liquor was sprayed and after 2 hours, inoculation of strips was performed followed by culturing at humidity. After full occurrence of diseases in the control group, state of illness was examined according to grading standards, and a disease index and inhibition rate were calculated.

[3] = test system: gray mold of cucumber; assay: Spawn growth rate on agar plates (Embodiment 9); format: cell-based, Botrytis cinerea; conditions: 48 h; for inhibition of growth at 12.5 µg/g: Concentration 12.5 μg/g; for inhibition of growth at 25 µg/g: Concentration 25 μg/g; for inhibition of growth at 50 µg/g: Concentration 50 μg/g
[4] = test system: tobacco brown spot; assay: microbe, parasite or virus in culture; format: cell-based, Alternaria alternate (Fries) Keissler; conditions: 48 h, testing concentration of 100 μg/g; Table 4; read-out: Tobacco brown spot Average inhibition rate (%)
[5] = test system: Rice Sheath Blight Disease; assay: Microbicidal activity, spray then strip inoculation (Embodiment 8); conditions: for pest or weed control at 500 µg/g: Oryza sativa, read-out: Rice Sheath Blight Disease Average inhibition rate (%)
Procedure: as §1, §2

[6] = test system: Corynespora Leaf Spot of Cucumber; assay: Microbicidal activity on cucumber seedlings, spray then spore inoculation (Embodiment 8); conditions: for pest or weed control at 500 µg/g: Corynespora, in Cucumis sativus, read-out: Corynespora Leaf Spot of Cucumber Average inhibition rate (%)
Procedure: as §1, §2

[7] = test system: Downy Mildew of Cucumber; assay: as above; conditions: for pest or weed control at 500 µg/g: Cucumis sativus, read-out: Downy Mildew of Cucumber Average inhibition rate (%)
Procedure: as §1, §2

[8] = test system: wheat scab; assay: microbe, parasite or virus in culture; format: cell-based, Gibberella zeae; conditions: for inhibition of growth at 100 µg/g: 48 h, read-out: Wheat scab Average inhibition rate (%); for Wheat scab (inhibition): Table 7
[9] = test system: early blight of tomato; assay: Spawn growth rate on agar plates (Embodiment 9); format: cell-based, Alternaria solania; conditions: for inhibition of growth at 100 µg/g: 48 h, testing concentration of 100 μg/g, Table 6; for Early blight of tomato (inhibition): Table 7
[10] = test system: Rice Sheath Blight Disease (sheath and culm blight of rice); assay: Spawn growth rate on agar plates (Embodiment 9); format: cell-based, Rhizoctonia solani; conditions: 48 h; for inhibition of growth at 12.5 µg/g: Concentration 12.5 μg/g; for inhibition of growth at 25 µg/g: Concentration 25 μg/g; for inhibition of growth at 50 µg/g: Concentration 50 μg/g
[11] = test system: anthracnose of cucumber; assay: Spawn growth rate on agar plates (Embodiment 9); format: cell-based, GloeosporiumorbiculareArs; conditions: 48 h; testing concentration of 100 μg/g; Table 5
[12] = testing concentration of 100 μg/g, Table 4, read-out: Gray mold of cucumber Average inhibition rate (%)
[13] = Concentration 100 μg/g, Table 7, read-out: Gray mold of cucumber (inhibition)
[14] = testing concentration of 100 μg/g, Table 6, read-out: Gray mold of cucumber Average inhibition rate (%)
[15] = Concentration 100 μg/g, Table 7, read-out: Sheath and culm blight of rice (inhibition)
[16] = testing concentration of 100 μg/g, Table 6, read-out: Sheath and culm blight of rice Average inhibition rate (%)
[17] = testing concentration of 500 μg/g

S=c1[nH]nc(NCNc2n[nH]c(=S)s2)s1 [Bismerthiazol, reference compound]
Cucumber bacterial spot (%), controlling effect [1]: 73.14%
Cucumber Angular Leaf Spot Average inhibition rate (%) [2]: 73%

Cc1ccc(Cl)c(OCc2cn(Cc3cnc(C)nc3N)nn2)c1 [Compound 5]
inhibition of growth at 100 µg/g [3, 12]: 67%
inhibition of growth at 100 µg/g [4]: 56%
melting point: 184 to 185 °C
pest or weed control at 500 µg/g [5]: 80%
pest or weed control at 500 µg/g [2]: 50%
pest or weed control at 500 µg/g [6]: 70%
pest or weed control at 500 µg/g [7]: 70%

Cc1ncc(Cn2cc(COc3ccc(C(=O)O)cc3)nn2)c(N)n1 [Compound 7]
inhibition of growth at 100 µg/g [3, 12]: 67%
inhibition of growth at 100 µg/g [4]: 57%
melting point: > 260 °C
pest or weed control at 500 µg/g [5]: 70%
pest or weed control at 500 µg/g [2]: 55%
pest or weed control at 500 µg/g [6]: 70%
pest or weed control at 500 µg/g [7]: 40%

Cc1ncc(Cn2cc(COC(=O)c3ccccc3F)nn2)c(N)n1 [Compound 37]
inhibition of growth at 100 µg/g [3, 12]: 98%
inhibition of growth at 100 µg/g [8]: 51%
melting point: 124 to 125 °C
pest or weed control at 500 µg/g [5]: 50%
pest or weed control at 500 µg/g [1]: 70%
pest or weed control at 500 µg/g [2]: 37%

Nc1nnc([S-])s1.Nc1nnc([S-])s1.[Cu+2] [Thiodiazole-copper, reference compound]
Cucumber bacterial spot (%), controlling effect [1]: 65.89%
Cucumber Angular Leaf Spot Average inhibition rate (%) [2]: 66%

Cc1ncc(Cn2nnc(COc3ccc(Cl)cc3C)c2I)c(N)n1 [Compound 29]
inhibition of growth at 12.5 µg/g ([3]; Table 8): 47%
inhibition of growth at 25 µg/g ([3]; Table 7): 79%
inhibition of growth at 25 µg/g ([3]; Table 8): 72%
inhibition of growth at 50 µg/g ([3]; Table 7): 90%
inhibition of growth at 50 µg/g ([3]; Table 8): 91%
inhibition of growth at 100 µg/g [3, 13]: 100%
inhibition of growth at 100 µg/g [3, 14]: 100%
inhibition of growth at 100 µg/g [8]: 67%
Wheat scab (inhibition) ([8]; Concentration 25 μg/g): 26%
Wheat scab (inhibition) ([8]; Concentration 50 μg/g): 45%
Wheat scab (inhibition) ([8]; Concentration 100 μg/g): 52%
inhibition of growth at 100 µg/g [9]: 60%
Early blight of tomato (inhibition) ([9]; Concentration 25 μg/g): 0%
Early blight of tomato (inhibition) ([9]; Concentration 50 μg/g): 25%
Early blight of tomato (inhibition) ([9]; Concentration 100 μg/g): 41%
inhibition of growth at 12.5 µg/g ([10]; Table 8): 33%
inhibition of growth at 25 µg/g ([10]; Table 7): 64%
inhibition of growth at 25 µg/g ([10]; Table 8): 68%
inhibition of growth at 50 µg/g ([10]; Table 7): 70%
inhibition of growth at 50 µg/g ([10]; Table 8): 69%
inhibition of growth at 100 µg/g [10, 15]: 96%
inhibition of growth at 100 µg/g [10, 16]: 98%
melting point: 163 to 165 °C

Cc1ncc(Cn2cc(COc3cccc(C)c3C)nn2)c(N)n1 [Compound 14]
inhibition of growth at 100 µg/g [3, 12]: 54%
inhibition of growth at 100 µg/g [4]: 60%
melting point: 202 to 204 °C
pest or weed control at 500 µg/g [5]: 70%
pest or weed control at 500 µg/g [2]: 60%
pest or weed control at 500 µg/g [6]: 90%
pest or weed control at 500 µg/g [7]: 35%

Cc1ncc(Cn2cc(COC(=O)c3ccc(Cl)cc3)nn2)c(N)n1 [Compound 33]
inhibition of growth at 100 µg/g [3, 12]: 61%
inhibition of growth at 100 µg/g [8]: 55%
melting point: 188 to 189 °C
pest or weed control at 500 µg/g [5]: 55%
pest or weed control at 500 µg/g [1]: 60%

Cc1ncc(Cn2cc(COc3ccc(Cl)cc3Cl)nn2)c(N)n1 [Compound 10]
inhibition of growth at 100 µg/g [3, 12]: 56%
inhibition of growth at 100 µg/g [4]: 58%
inhibition of growth at 100 µg/g [11]: 64%
melting point: 175 to 177 °C
pest or weed control at 500 µg/g [5]: 70%
pest or weed control at 500 µg/g [2]: 60%
pest or weed control at 500 µg/g [6]: 70%
pest or weed control at 500 µg/g [7]: 50%

Cc1ncc(Cn2nnc(COc3ccc(Br)cc3)c2I)c(N)n1 [Compound 84]
inhibition of growth at 12.5 µg/g ([3]; Table 8): 66%
inhibition of growth at 25 µg/g ([3]; Table 8): 90%
inhibition of growth at 50 µg/g ([3]; Table 8): 94%
inhibition of growth at 100 µg/g [3, 14]: 93%
inhibition of growth at 100 µg/g [8]: 62%
inhibition of growth at 100 µg/g [9]: 58%
inhibition of growth at 12.5 µg/g ([10]; Table 8): 73%
inhibition of growth at 25 µg/g ([10]; Table 8): 95%
inhibition of growth at 50 µg/g ([10]; Table 8): 97%
inhibition of growth at 100 µg/g [10, 16]: 98%
melting point: 138 to 140 °C

Cc1ccc(C(=O)OCc2cn(Cc3cnc(C)nc3N)nn2)cc1 [Compound 38]
inhibition of growth at 100 µg/g [3, 12]: 61%
inhibition of growth at 100 µg/g [11]: 54%
inhibition of growth at 100 µg/g [8]: 56%
melting point: 202 to 203 °C
pest or weed control at 500 µg/g [5]: 50%
pest or weed control at 500 µg/g [1]: 60%
pest or weed control at 500 µg/g [2]: 40%

Cc1ncc(Cn2cc(COC(=O)c3ccc(F)cc3)nn2)c(N)n1 [Compound 34]
inhibition of growth at 100 µg/g [3, 12]: 63%
inhibition of growth at 100 µg/g [8]: 51%
melting point: 198 to 199 °C
pest or weed control at 500 µg/g [5]: 40%
pest or weed control at 500 µg/g [1]: 60%

Cc1ncc(Cn2nnc(COc3ccccc3Cl)c2I)c(N)n1 [Compound 86]
inhibition of growth at 12.5 µg/g ([3]; Table 8): 40%
inhibition of growth at 25 µg/g ([3]; Table 8): 76%
inhibition of growth at 50 µg/g ([3]; Table 8): 97%
inhibition of growth at 100 µg/g [3, 14]: 100%
inhibition of growth at 100 µg/g [8]: 62%
inhibition of growth at 100 µg/g [9]: 60%
inhibition of growth at 12.5 µg/g ([10]; Table 8): 37%
inhibition of growth at 25 µg/g ([10]; Table 8): 74%
inhibition of growth at 50 µg/g ([10]; Table 8): 98%
inhibition of growth at 100 µg/g [10, 16]: 99%
melting point: 168 to 170 °C

Cc1ncc(Cn2cc(COC(=O)c3ccccc3Cl)nn2)c(N)n1 [Compound 36]
inhibition of growth at 100 µg/g [3, 12]: 61%
melting point: 85 to 87 °C
pest or weed control at 500 µg/g [5]: 45%
pest or weed control at 500 µg/g [1]: 60%
pest or weed control at 500 µg/g [2]: 60%

Zhongshengmycin [reference compound]
Rice Sheath Blight Disease Average inhibition rate (%) [5, 17]: 50%
Cucumber bacterial spot (%), controlling effect [1]: 70.69%
Cucumber Angular Leaf Spot Average inhibition rate (%) [2]: 70%
Corynespora Leaf Spot of Cucumber Average inhibition rate (%) [6, 17]: 50%
Downy Mildew of Cucumber Average inhibition rate (%) [7, 17]: 40%

Cc1ncc(Cn2cc(COc3ccc([N+](=O)[O-])cc3Cl)nn2)c(N)n1 [Compound 15]
inhibition of growth at 100 µg/g [3, 12]: 44%
inhibition of growth at 100 µg/g [11]: 57%
melting point: 194 to 196 °C
pest or weed control at 500 µg/g [5]: 60%
pest or weed control at 500 µg/g [2]: 60%
pest or weed control at 500 µg/g [6]: 80%
pest or weed control at 500 µg/g [7]: 30%

Cc1ncc(Cn2nnc(COc3ccc(Cl)cc3)c2I)c(N)n1 [Compound 28]
inhibition of growth at 12.5 µg/g ([3]; Table 8): 85%
inhibition of growth at 25 µg/g ([3]; Table 7): 42%
inhibition of growth at 25 µg/g ([3]; Table 8): 90%
inhibition of growth at 50 µg/g ([3]; Table 7): 86%
inhibition of growth at 50 µg/g ([3]; Table 8): 98%
inhibition of growth at 100 µg/g [3, 13]: 90%
inhibition of growth at 100 µg/g [3, 14]: 100%
inhibition of growth at 100 µg/g [8]: 67%
Wheat scab (inhibition) ([8]; Concentration 25 μg/g): 43%
Wheat scab (inhibition) ([8]; Concentration 50 μg/g): 64%
Wheat scab (inhibition) ([8]; Concentration 100 μg/g): 69%
inhibition of growth at 100 µg/g [9]: 69%
Early blight of tomato (inhibition) ([9]; Concentration 25 μg/g): 0%
Early blight of tomato (inhibition) ([9]; Concentration 50 μg/g): 28%
Early blight of tomato (inhibition) ([9]; Concentration 100 μg/g): 68%
inhibition of growth at 12.5 µg/g ([10]; Table 8): 87%
inhibition of growth at 25 µg/g ([10]; Table 7): 91%
inhibition of growth at 25 µg/g ([10]; Table 8): 96%
inhibition of growth at 50 µg/g ([10]; Table 7): 98%
inhibition of growth at 50 µg/g ([10]; Table 8): 98%
inhibition of growth at 100 µg/g [10, 15]: 99%
inhibition of growth at 100 µg/g [10, 16]: 100%
melting point: 183 to 185 °C

COc1ccc(OCc2nnn(Cc3cnc(C)nc3N)c2I)cc1 [Compound 26]
inhibition of growth at 12.5 µg/g ([3]; Table 8): 43%
inhibition of growth at 25 µg/g ([3]; Table 8): 55%
inhibition of growth at 50 µg/g ([3]; Table 8): 88%
inhibition of growth at 100 µg/g [3, 14]: 92%
inhibition of growth at 100 µg/g [8]: 55%
inhibition of growth at 100 µg/g [9]: 69%
inhibition of growth at 12.5 µg/g ([10]; Table 8): 58%
inhibition of growth at 25 µg/g ([10]; Table 8): 72%
inhibition of growth at 50 µg/g ([10]; Table 8): 94%
inhibition of growth at 100 µg/g [10, 16]: 99%
melting point: 177 to 179 °C
